Data from ChEMBL document CHEMBL6120978, “Anticancer activity of salinomycin quaternary phosphonium salts” (Eur J Med Chem, 2025).
Calls of active or inactive are those of the source. The calls are words filed in the database; no cut-off is given here.

What was measured:
A549 [1] = assay: Induction of mitochondrial respiration in human A549 cells assessed as decrease in oxygen consumption rate at 3 uM by Oxygraph-2K system; assay type: functional, cell-based
A549 [2] = assay: Cytotoxicity against human A549 cells incubated for 72 hrs by MTT assay; assay type: functional, cell-based; conditions: A549, 72 h
[3] = system: Staphylococcus epidermidis; assay: Antimicrobial activity against Staphylococcus epidermidis ATCC 35984 incubated for 18 hrs by twofold microdilution method; assay type: functional
[4] = Selectivity index, ratio of IC50 for cytotoxicity against human HaCaT cells to IC50 for cytotoxicity against human SW620 cells; assay type: toxicity, cell-based; conditions: HaCaT cells versus SW620 cells, read-out: Ratio IC50
Lipid bilayer [5] = assay: Induction of ionic transport in azolectin bilayer membrane assessed as membrane rupture in presence of HEPES buffer by electrophysiology technique
Staphylococcus aureus [6] = assay: Antimicrobial activity against Staphylococcus aureus NCTC 4163 incubated for 18 hrs by twofold microdilution method; assay type: functional
[7] = Selectivity index, ratio of IC50 for cytotoxicity against human HaCaT cells to IC50 for cytotoxicity against human PC-3 cells; assay type: toxicity, cell-based; conditions: HaCaT cells versus PC-3 cells, read-out: Ratio IC50
SW-620 = assay: Cytotoxicity against human SW620 cells incubated for 72 hrs by MTT assay; assay type: functional, cell-based; conditions: SW-620, 72 h
[8] = Cytotoxicity against chinese hamster V79 cells incubated for 72 hrs by MTT assay; assay type: toxicity, cell-based, Cricetulus griseus
[9] = system: Staphylococcus epidermidis; assay: Antimicrobial activity against Staphylococcus epidermidis ATCC 12228 incubated for 18 hrs by twofold microdilution method; assay type: functional
Escherichia coli = assay: Antimicrobial activity against Escherichia coli ATCC 25922 incubated for 18 hrs by twofold microdilution method; assay type: functional
MDA-MB-231 = assay: Cytotoxicity against human MDA-MB-231 cells incubated for 72 hrs by MTT assay; assay type: functional, cell-based; conditions: MDA-MB-231, 72 h
[10] = Selectivity index, ratio of IC50 for cytotoxicity against human HaCaT cells to IC50 for cytotoxicity against human A549 cells; assay type: toxicity, cell-based; conditions: HaCaT cells versus A549 cells, read-out: Ratio IC50
[11] = Cytotoxicity against human HaCaT cells incubated for 72 hrs by MTT assay; assay type: toxicity, cell-based
Lipid bilayer [12] = assay: Induction of current generation in azolectin bilayer membrane in presence of HEPES buffer by electrophysiology technique
[13] = Selectivity index, ratio of IC50 for cytotoxicity against chinese hamster V79 cells to IC50 for cytotoxicity against human A549 cells; assay type: toxicity, cell-based; conditions: V79 cells versus A549 cells, read-out: Ratio IC50
SW480 = assay: Cytotoxicity against human SW480 cells incubated for 72 hrs by MTT assay; assay type: functional, cell-based; conditions: SW480, 72 h
Lipid bilayer [14] = assay: Induction of ionic transport in azolectin bilayer membrane assessed as irregular disturbance in membrane permeability in presence of HEPES buffer by electrophysiology technique
[15] = Selectivity index, ratio of IC50 for cytotoxicity against human HaCaT cells to IC50 for cytotoxicity against human SW480 cells; assay type: toxicity, cell-based; conditions: HaCaT cells versus SW480 cells, read-out: Ratio IC50
Staphylococcus aureus [16] = assay: Antimicrobial activity against Staphylococcus aureus ATCC 25923 incubated for 18 hrs by twofold microdilution method; assay type: functional
[17] = Selectivity index, ratio of IC50 for cytotoxicity against chinese hamster V79 cells to IC50 for cytotoxicity against human SW480 cells; assay type: toxicity, cell-based; conditions: V79 cells versus SW480 cells, read-out: Ratio IC50
A549 [18] = assay: Induction of mitochondrial respiration in human A549 cells assessed as fold increase in oxygen consumption rate at 1 uM by Oxygraph-2K system; assay type: functional
Pseudomonas aeruginosa = assay: Antimicrobial activity against Pseudomonas aeruginosa ATCC 15442 incubated for 18 hrs by twofold microdilution method; assay type: functional
Staphylococcus aureus [19] = assay: Antimicrobial activity against Staphylococcus aureus ATCC 29213 incubated for 18 hrs by twofold microdilution method; assay type: functional
[20] = Selectivity index, ratio of IC50 for cytotoxicity against chinese hamster V79 cells to IC50 for cytotoxicity against human MDA-MB-231 cells; assay type: toxicity, cell-based; conditions: V79 cells versus MDA-MB-231 cells, read-out: Ratio IC50
[21] = Selectivity index, ratio of IC50 for cytotoxicity against chinese hamster V79 cells to IC50 for cytotoxicity against human SW620 cells; assay type: toxicity, cell-based; conditions: V79 cells versus SW620 cells, read-out: Ratio IC50
[22] = Selectivity index, ratio of IC50 for cytotoxicity against human HaCaT cells to IC50 for cytotoxicity against human MDA-MB-231 cells; assay type: toxicity, cell-based; conditions: HaCaT cells versus MDA-MB-231 cells, read-out: Ratio IC50
PC-3 = assay: Cytotoxicity against human PC-3 cells incubated for 72 hrs by MTT assay; assay type: functional, cell-based; conditions: PC-3, 72 h
[23] = Selectivity index, ratio of IC50 for cytotoxicity against chinese hamster V79 cells to IC50 for cytotoxicity against human PC-3 cells; assay type: toxicity, cell-based; conditions: V79 cells versus PC-3 cells, read-out: Ratio IC50
Lipid bilayer [24] = assay: Induction of ionic transport in azolectin bilayer membrane assessed as specific channel-like structure formation in presence of HEPES buffer by electrophysiology technique
Staphylococcus aureus [25] = assay: Antimicrobial activity against Staphylococcus aureus ATCC 6538 incubated for 18 hrs by twofold microdilution method; assay type: functional
Mitochondrial membrane [26] = assay: Induction of mitochondrial membrane potential loss in human MDA-MB-231 cells assessed as red fluorescence at IC50 incubated for 48 hrs MitoTrackerRed CMXRos staining based flow cytometry analysis (reference value: 91.1 %); assay type: cell membranes
Mitochondrial membrane [27] = assay: Induction of mitochondrial membrane potential loss in human MDA-MB-231 cells assessed as green fluorescence at IC50 incubated for 48 hrs MitoTracker Green FM staining based flow cytometry analysis (reference value: 8.86 %); assay type: cell membranes
Mitochondrial membrane [28] = assay: Induction of mitochondrial membrane potential loss in human A549 cells assessed as green fluorescence at IC50 incubated for 48 hrs MitoTracker Green FM staining based flow cytometry analysis (reference value: 8.93 %); assay type: cell membranes
Mitochondrial membrane [29] = assay: Induction of mitochondrial membrane potential loss in human A549 cells assessed as red fluorescence at IC50 incubated for 48 hrs MitoTrackerRed CMXRos staining based flow cytometry analysis (reference value: 91.1 %); assay type: cell membranes

CC[C@@H](C(=O)[C@@H](C)[C@@H](O)[C@H](C)[C@@H]1O[C@@H]([C@@H](CC)C(=O)OCCCC[P+](c2ccc(C)cc2)(c2ccc(C)cc2)c2ccc(C)cc2)CC[C@@H]1C)[C@H]1O[C@]2(C=C[C@@H](O)[C@]3(CC[C@@](C)([C@H]4CC[C@](O)(CC)[C@H](C)O4)O3)O2)[C@H](C)C[C@@H]1C.[Br-]
Activity (A549 [1]): inactive | IC50 (A549 [2]): 810 nM | MIC [3]: 4 µg/mL | selectivity ratio [4]: 2 | Activity (Lipid bilayer [5]): inactive | MIC (Staphylococcus aureus [6]): 2 µg/mL | selectivity ratio [7]: 0.5 | IC50 (SW-620): 500 nM | IC50 at 72 h [8]: 3770 nM | MIC [9]: 4 µg/mL | MIC (Escherichia coli): > 256 µg/mL | IC50 (MDA-MB-231): 830 nM | selectivity ratio [10]: 1.3 | IC50 at 72 h [11]: 1020 nM | Activity (Lipid bilayer [12]): Dose-dependent-effect | selectivity ratio [13]: 4.7 | IC50 (SW480): 440 nM | Activity (Lipid bilayer [14]): inactive | selectivity ratio [15]: 2.3 | MIC (Staphylococcus aureus [16]): 4 µg/mL | selectivity ratio [17]: 8.6 | fold change (FC) (A549 [18]): 2.5 | MIC (Pseudomonas aeruginosa): > 256 µg/mL | MIC (Staphylococcus aureus [19]): 4 µg/mL | selectivity ratio [20]: 4.5 | selectivity ratio [21]: 7.5 | selectivity ratio [22]: 1.2 | IC50 (PC-3): 2210 nM | selectivity ratio [23]: 1.7 | Activity (Lipid bilayer [24]): inactive | MIC (Staphylococcus aureus [25]): 2 µg/mL

N#CC(C#N)=NNc1cccc(Cl)c1
Activity (Mitochondrial membrane [26]): 12.3% | Activity (Mitochondrial membrane [27]): 87.8% | Activity (Mitochondrial membrane [28]): 79.6% | Activity (Mitochondrial membrane [29]): 20.2%
